Reference: paper PMC10934024, “Protein–Ligand Binding and Structural Modelling Studies of Pheromone-Binding Protein-like Sol g 2.1 from Solenopsis geminata Fire Ant Venom” (Molecules, 2024)

Tests used:
Sol i 2 = settings: cited from earlier work
rSol g 2.1 protein [1] = molecular target: T1, rSol g 2.1 protein (Solenopsis geminata, UniProt A0A9E7V488); test: Fluorescence binding assay, NPN titration into rSol g 2.1
T1 sequence (A0A9E7V488 1-119): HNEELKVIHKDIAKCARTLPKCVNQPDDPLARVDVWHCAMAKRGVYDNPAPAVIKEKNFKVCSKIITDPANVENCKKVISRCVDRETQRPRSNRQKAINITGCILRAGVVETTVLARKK
Method: The fluorescence binding assay of rSol g 2.1 protein was conducted using the fluorescent probe N-phenyl-1-naphtylamine (NPN). […] The fluorescence intensity was measured on a PTI QuantaMaster fluorometer (Horiba Ltd., Kyoto, Japan) with a 337 nm excitation wavelength and emission scan ranging from 300–500 nm at room temperature in triplicate. To obtain the equilibrium dissociation (Kd) value, the fluorescence intensity at the maximal emission wavelength 400 nm was plotted for each NPN concentration. Data were fitted to a specific allosteric binding model using GraphPad Prism Version 9.0 (GraphPad Software, San Diego, CA, USA). Y = Bmax × X^h/(Kd^h + X^h) was used as an equation in the fitting model, where Bmax is the maximal specific binding in the same unit as Y, X is the NPN concentration (µM), and Y is the fluorescence intensity counts/second. Moreover, h is the Hill slope, which is 1.0 for cases with one site. If there is more than one binding site per protein and there is cooperativity, then h > 1.0, and the graph takes on a sigmoidal appearance.

rSol g 2.1 protein [2] = molecular target: T1, rSol g 2.1 protein; test: Fluorescence competitive binding assay (NPN displacement); settings: 2 µM rSol g 2.1 with 4 µM NPN, ligand 0-4 µM, 50 mM Tris-HCl pH 7.4
Method: The binding of the endogenous ligands, including decane, undecane dodecane, and tridecane, to rSol g 2.1 protein was measured by a competitive binding assay. In this procedure, 1 mL of rSol g 2.1 protein (2 µM) in 50 mM Tris-HCl (pH 7.4) containing NPN (4 µM) was titrated with each ligand (1 mM in methanol stock) to the final concentrations of 0, 0.125, 0.375, 0.625, 0.875, 1.125, 2, 3, and 4 µM. Additionally, the same concentrations of the blended ligands, which consisted of decane (45%), undecane (36%), dodecane (15%), and tridecane (4%), were used to investigate the blend effect of Sol g 2.1 protein. The resulting isotherms were fitted (GraphPad Prism 9) to both a one-site model and an allosteric model.

| Compound | binding affinity (Sol i 2) | Kd (rSol g 2.1 protein [1]; 2 µM rSol g 2.1, 50 mM Tris-HCl pH 7.4, NPN 0-12 µM, emission 400 nm, specific binding with Hill slope model) [nM] | h slope (Hill slope) (rSol g 2.1 protein [1]; same fit as Kd of NPN) | Kd (rSol g 2.1 protein [2]) [nM] |
| --- | --- | --- | --- | --- |
| C=CC(=C)CC/C=C(\C)CCC=C(C)C [(E)-β-farnesene] | high binding affinity | – | – | – |
| c1ccc(Nc2cccc3ccccc23)cc1 [NPN, N-phenyl-1-naphtylamine] | – | 1900 ± 80 | 1.64 ± 0.12 | – |
| CCCCCCCCCC [decane, Decane] | high binding affinity | – | – | 320 |
| CCCCCCCCCCCC [dodecane, Dodecane] | – | – | – | 390 |
| CCCCCCCCCCCCC [tridecane, Tridecane] | – | – | – | 380 |
| CCCCCCCCCCC [undecane, Undecane] | high binding affinity | – | – | 330 |
